Data on 27 compounds can be found in patent US10550105B2 (Ribon Therapeutics Inc., priority 2018, dated 2020).

This test has as its target PARP7 (Homo sapiens (Human), UniProt Q7Z3E1). The experiment in a line: Enzymatic assay for inhibition of PARP7: TR-FRET displacement of biotinylated Probe A from the TIPARP active site. The format is binding. The note with it: Table A-1. In outline: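 Titrated compounds compete with the biotinylated probe; after an additional 30 min incubation at 25° C, time-delayed fluorescence (90 μs) is measured. Inhibition curves use a Hill coefficient that normally floats but may be held at 1.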

Chain of PARP7 (Q7Z3E1 whole entry): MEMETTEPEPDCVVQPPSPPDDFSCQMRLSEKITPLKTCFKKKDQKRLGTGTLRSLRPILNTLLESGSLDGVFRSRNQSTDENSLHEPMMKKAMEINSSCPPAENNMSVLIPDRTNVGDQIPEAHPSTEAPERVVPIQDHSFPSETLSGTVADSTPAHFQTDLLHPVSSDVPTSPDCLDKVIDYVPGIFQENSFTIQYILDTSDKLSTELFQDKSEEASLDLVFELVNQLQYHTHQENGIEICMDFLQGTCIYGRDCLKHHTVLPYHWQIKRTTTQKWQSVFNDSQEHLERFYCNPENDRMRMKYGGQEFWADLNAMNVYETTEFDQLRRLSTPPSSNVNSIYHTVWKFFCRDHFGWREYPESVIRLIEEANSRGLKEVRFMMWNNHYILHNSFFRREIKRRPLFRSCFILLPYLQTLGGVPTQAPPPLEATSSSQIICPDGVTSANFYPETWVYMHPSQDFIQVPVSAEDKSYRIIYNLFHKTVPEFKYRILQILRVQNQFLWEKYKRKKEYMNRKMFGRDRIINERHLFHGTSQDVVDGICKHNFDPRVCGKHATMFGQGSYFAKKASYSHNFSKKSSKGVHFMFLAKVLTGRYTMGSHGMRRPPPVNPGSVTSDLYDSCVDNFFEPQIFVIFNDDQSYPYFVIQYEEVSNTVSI

Compound `Cc1cnc(N2CCN(C(=O)CCOC[C@H](C)Nc3cn[nH]c(=O)c3C(F)(F)F)CC2)nc1` [Example 670, (S)-5-((1-(3-(4-(5-Methylpyrimidin-2-yl)piperazin-1-yl)-3-oxopropoxy)propan-2-yl)amino)-4-(trifluoromethyl)pyridazin-3(2H)-one] yielded an IC50 of less than 0.1 µM.
Under `Cc1ccc(N2CCN(C(=O)CCOC[C@H](C)Nc3cn[nH]c(=O)c3C(F)(F)F)CC2)nc1` [Example 671, (S)-5-((1-(3-(4-(5-Methylpyridin-2-yl)piperazin-1-yl)-3-oxopropoxy)propan-2-yl)amino)-4-(trifluoromethyl)pyridazin-3(2H)-one] stands less than 0.1 µM; under `C[C@@H](COCCC(=O)N1CCN(c2ccc(CN)cn2)CC1)Oc1cn[nH]c(=O)c1C(F)(F)F` [Example 673, (S)-5-((1-(3-(4-(5-(Aminomethyl)pyridin-2-yl)piperazin-1-yl)-3-oxopropoxy)propan-2-yl)oxy)-4-(trifluoromethyl)pyridazin-3(2H)-one], less than 0.1 µM; under `C[C@@H](COCCC(=O)N1CCN(c2cc(C(F)(F)F)ccn2)CC1)Nc1cn[nH]c(=O)c1C(F)(F)F` [Example 674, (S)-5-((1-(3-Oxo-3-(4-(4-(trifluoromethyl)pyridin-2-yl)piperazin-1-yl)propoxy)propan-2-yl)amino)-4-(trifluoromethyl)pyridazin-3(2H)-one], less than 0.1 µM.
Next, `C[C@@H](COCCC(=O)N1CCN(c2ccccn2)CC1)Nc1cn[nH]c(=O)c1C(F)(F)F` [Example 675, (S)-5-((1-(3-Oxo-3-(4-(pyridin-2-yl)piperazin-1-yl)propoxy)propan-2-yl)amino)-4-(trifluoromethyl)pyridazin-3(2H)-one]: less than 0.1 µM.
`C[C@@H](COCCC(=O)N1CCN(c2ncccc2C#N)CC1)Nc1cn[nH]c(=O)c1C(F)(F)F` [Example 676, (S)-2-(4-(3-(2-((6-Oxo-5-(trifluoromethyl)-1,6-dihydropyridazin-4-yl)amino)propoxy)propanoyl)piperazin-1-yl)nicotinonitrile] returned an IC50 of less than 0.1 µM.
`C[C@@H](COCCC(=O)N1CCN(c2ncccc2C(F)(F)F)CC1)Nc1cn[nH]c(=O)c1C(F)(F)F` [Example 677, (S)-5-((1-(3-Oxo-3-(4-(3-(trifluoromethyl)pyridin-2-yl)piperazin-1-yl)propoxy)propan-2-yl)amino)-4-(trifluoromethyl)pyridazin-3(2H)-one] showed an IC50 of less than 0.1 µM.
Next, `COC[C@@H](COCCC(=O)N1CCN(c2cnc(Cl)cn2)CC1)Nc1cn[nH]c(=O)c1C(F)(F)F` [Example 678, (S)-5-((1-(3-(4-(5-Chloropyrazin-2-yl)piperazin-1-yl)-3-oxopropoxy)-3-methoxypropan-2-yl)amino)-4-(trifluoromethyl)pyridazin-3(2H)-one]: less than 0.1 µM; `C[C@@H](COCCC(=O)N1CCN(c2ncc(F)cn2)CC1)Nc1cn[nH]c(=O)c1C(F)(F)F` [Example 679, (S)-5-((1-(3-(4-(5-Fluoropyrimidin-2-yl)piperazin-1-yl)-3-oxopropoxy)propan-2-yl)amino)-4-(trifluoromethyl)pyridazin-3(2H)-one]: less than 0.1 µM; `C[C@@H](COCCC(=O)N1CCN(c2ncc(C#N)s2)CC1)Nc1cn[nH]c(=O)c1C(F)(F)F` [Example 680, (S)-2-(4-(3-(2-((6-Oxo-5-(trifluoromethyl)-1,6-dihydropyridazin-4-yl)amino)propoxy)propanoyl)piperazin-1-yl)thiazole-5-carbonitrile]: less than 0.1 µM.
Under `COC[C@@H](COCCC(=O)N1CCN(c2cnc(C(F)(F)F)cn2)CC1)Nc1cn[nH]c(=O)c1C(F)(F)F` [Example 681, (S)-5-((1-Methoxy-3-(3-oxo-3-(4-(5-(trifluoromethyl)pyrazin-2-yl)piperazin-1-yl)propoxy)propan-2-yl)amino)-4-(trifluoromethyl)pyridazin-3(2H)-one] stands less than 0.1 µM; under `Cc1ccc(N2CCN(C(=O)CCOC[C@H](C)Oc3cn[nH]c(=O)c3C(F)(F)F)CC2)nc1` [Example 682, (S)-5-((1-(3-(4-(5-Methylpyridin-2-yl)piperazin-1-yl)-3-oxopropoxy)propan-2-yl)oxy)-4-(trifluoromethyl)pyridazin-3(2H)-one], less than 0.1 µM.
Under `C[C@@H](COCCC(=O)N1CCN(c2cnc(C#N)cn2)CC1)Nc1cn[nH]c(=O)c1C(F)(F)F` [Example 683, (S)-5-(4-(3-(2-((6-Oxo-5-(trifluoromethyl)-1,6-dihydropyridazin-4-yl)amino)propoxy)propanoyl)piperazin-1-yl)pyrazine-2-carbonitrile] stands less than 0.1 µM; under `C[C@@H](COCCC(=O)N1CCN(c2ccc(F)cn2)CC1)Nc1cn[nH]c(=O)c1C(F)(F)F` [Example 684, (S)-5-((1-(3-(4-(5-Fluoropyridin-2-yl)piperazin-1-yl)-3-oxopropoxy)propan-2-yl)amino)-4-(trifluoromethyl)pyridazin-3(2H)-one], less than 0.1 µM; under `C[C@@H](COCCC(=O)N1CCN(c2ccc(C(F)(F)F)nc2)CC1)Nc1cn[nH]c(=O)c1C(F)(F)F` [Example 685, (S)-5-((1-(3-Oxo-3-(4-(6-(trifluoromethyl)pyridin-3-yl)piperazin-1-yl)propoxy)propan-2-yl)amino)-4-(trifluoromethyl)pyridazin-3(2H)-one], less than 0.1 µM.
In the case of `COCC[C@@H](COCCC(=O)N1CCN(c2ncc(C(F)(F)F)cn2)CC1)Nc1cn[nH]c(=O)c1C(F)(F)F` [Example 686, (S)-5-((4-Methoxy-1-(3-oxo-3-(4-(5-(trifluoromethyl)pyrimidin-2-yl)piperazin-1-yl)propoxy)butan-2-yl)amino)-4-(trifluoromethyl)pyridazin-3(2H)-one], the IC50 was less than 0.1 µM.
Compound `Cc1cnc(N2CCN(C(=O)CCOC[C@H](C)Oc3cn[nH]c(=O)c3C(F)(F)F)CC2)nc1` [Example 687, (S)-5-((1-(3-(4-(5-Methylpyrimidin-2-yl)piperazin-1-yl)-3-oxopropoxy)propan-2-yl)oxy)-4-(trifluoromethyl)pyridazin-3(2H)-one] gave a half-maximal inhibitory concentration (IC50) of less than 0.1 µM.
Next, `C[C@@H](COCCC(=O)N1CC[C@@H]2[C@H]1CCN2c1ncc(C(F)(F)F)cn1)Nc1cn[nH]c(=O)c1C(F)(F)F` [Example 688, 5-(((S)-1-(3-Oxo-3-((3aR,6aR)-4-(5-(trifluoromethyl)pyrimidin-2-yl)hexahydropyrrolo[3,2-b]pyrrol-1(2H)-yl)propoxy)propan-2-yl)amino)-4-(trifluoromethyl)pyridazin-3(2H)-one]: less than 0.1 µM; `C[C@@H](COCCC(=O)N1CC[C@H]2[C@@H]1CCN2c1ncc(C(F)(F)F)cn1)Nc1cn[nH]c(=O)c1C(F)(F)F` [Example 689, 5-(((S)-1-(3-Oxo-3-((3aS,6aS)-4-(5-(trifluoromethyl)pyrimidin-2-yl)hexahydropyrrolo[3,2-b]pyrrol-1(2H)-yl)propoxy)propan-2-yl)amino)-4-(trifluoromethyl)pyridazin-3(2H)-one]: 0.1 to 1 µM; `COC[C@@H](COCCC(=O)N1CCN(c2ncc(C)cn2)CC1)Nc1cn[nH]c(=O)c1C(F)(F)F` [Example 690, (S)-5-((1-Methoxy-3-(3-(4-(5-methylpyrimidin-2-yl)piperazin-1-yl)-3-oxopropoxy)propan-2-yl)amino)-4-(trifluoromethyl)pyridazin-3(2H)-one]: less than 0.1 µM.
Next, `COC[C@@H](COCCC(=O)N1CCN(c2ncc(C(F)(F)F)cn2)CC1)Sc1cn[nH]c(=O)c1C(F)(F)F` [Example 691, (S)-5-((1-Methoxy-3-(3-oxo-3-(4-(5-(trifluoromethyl)pyrimidin-2-yl)piperazin-1-yl)propoxy)propan-2-yl)thio)-4-(trifluoromethyl)pyridazin-3(2H)-one]: less than 0.1 µM; `COC[C@@H](COCCC(=O)N1CCN(c2cnc(Cl)cn2)CC1)Nc1cn[nH]c(=O)c1Br` [Example 693, (S)-4-Bromo-5-((1-(3-(4-(5-chloropyrazin-2-yl)piperazin-1-yl)-3-oxopropoxy)-3-methoxypropan-2-yl)amino)pyridazin-3(2H)-one]: less than 0.1 µM.
Next, `COC[C@@H](COCCC(=O)N1CCN(c2cnc(C)cn2)CC1)Nc1cn[nH]c(=O)c1C(F)(F)F` [Example 695, (S)-5-((1-Methoxy-3-(3-(4-(5-methylpyrazin-2-yl)piperazin-1-yl)-3-oxopropoxy)propan-2-yl)amino)-4-(trifluoromethyl)pyridazin-3(2H)-one]: less than 0.1 µM.
In turn, `COC[C@@H](COCCC(=O)N1CCN(c2cnc(Cl)cn2)CC1)Oc1cn[nH]c(=O)c1C(F)(F)F` [Example 696, (S)-5-((1-(3-(4-(5-Chloropyrazin-2-yl)piperazin-1-yl)-3-oxopropoxy)-3-methoxypropan-2-yl)oxy)-4-(trifluoromethyl)pyridazin-3(2H)-one] had an IC50 of less than 0.1 µM.
Consider `COC[C@H](COCCC(=O)N1CCN(c2cnc(Cl)cn2)CC1)Oc1cn[nH]c(=O)c1C(F)(F)F` [Example 697, (R)-5-((1-(3-(4-(5-Chloropyrazin-2-yl)piperazin-1-yl)-3-oxopropoxy)-3-methoxypropan-2-yl)oxy)-4-(trifluoromethyl)pyridazin-3(2H)-one], for which the IC50 lay in the range of 0.1 to 1 µM.
Under `CO[C@@H](C)[C@@H](COCCC(=O)N1CCN(c2ncc(C(F)(F)F)cn2)CC1)Nc1cn[nH]c(=O)c1C(F)(F)F` [Example 698, 5-(((2R,3S)-3-Methoxy-1-(3-oxo-3-(4-(5-(trifluoromethyl)pyrimidin-2-yl)piperazin-1-yl)propoxy)butan-2-yl)amino)-4-(trifluoromethyl)pyridazin-3(2H)-one] stands less than 0.1 µM; under `CO[C@H](C)[C@@H](COCCC(=O)N1CCN(c2ncc(C(F)(F)F)cn2)CC1)Nc1cn[nH]c(=O)c1C(F)(F)F` [Example 699, 5-(((2R,3R)-3-Methoxy-1-(3-oxo-3-(4-(5-(trifluoromethyl)pyrimidin-2-yl)piperazin-1-yl)propoxy)butan-2-yl)amino)-4-(trifluoromethyl)pyridazin-3(2H)-one], less than 0.1 µM.
